Data as given in patent US20240058364A1, “A COMPOSITION FOR USE IN THE TREATMENT OF RECTAL AND/OR INTESTINAL INFLAMMATION” (CANNAMORE BIOTECHS LTD., priority 2020, published 2024).

What follows are compounds tested on IL8 secretion from TNFα induced Caco-2 cells (assay: IL8 secretion from TNFα induced Caco-2 cells (HTRF)). Details: 24 h incubation; combinations: CBD 30 μM with NaB or NaP 20 mM.
Format: cell-based, Human
Protocol: Cell lines were cultured according to standard mammalian tissue culture protocols and sterile technique. Human colon epithelial cells, Caco-2, were cultured in high glucose Dulbecco's Modified Eagle Medium (DMEM). Human monocytes THP-1 cells line were cultured in RPMI medium 1640. Both media were supplemented with 10% fetal bovine serum (FBS), 2 mM 1-glutamine and 0.1% penicillin-streptomycin solution in a humidified atmosphere (5% CO2, 95% air, 37° C.) in a 75 cm2 cell culture treated flask (Eppendorf). All the media and supplements were obtained from Biological Industries.
Interleukin 8 (IL 8) detection and quantification was performed with Homogeneous Time-Resolved fluorescence (HTRF).
Caco-2 cells were seeded in a 96 micro well delta surface plates (Eppendorf) at a starting confluence of 2×10^4 cells/well and were incubated for 21 days. Growth medium was replaced every 2-3 days.
After 22 days, the medium was replaced with medium containing both TNFα (as a damage inducer) and the tested sample (as treatment) using specific media containing 5% FBS. After 24 hours incubation, the supernatant was collected and stored for cytokine analysis. The supernatant was diluted up to 5 times in working media to avoid the hook effect.
HTRF assays were performed in white 96-well plate (CisBio Bioassays) with a total working volume of 20 μL. All HTRF reagents were purchased from CisBio Bioassays and reconstituted according to the manufacturer protocols. For each assay 16 μL of diluted supernatants samples were incubate with 4 μL mixed solution containing donor and acceptor antibodies.
After 2 h incubation HTRF signals were measured using SPARK multimode microplate reader with an excitation filter at 320 nm and fluorescence wavelength measurement at 620 and 665 nm, an integration delay of 60 μs and an integration time of 400 μs. Results were analyzed with a two-wavelength signal ratio: [intensity (665 nm)/intensity (620 nm)]*104. Calculation and analysis of cytokines release was performed according to the manufacturer protocols and using the 4PL 1/Y2 formula in GraphPad Prism software.
For `C=C(C)[C@@H]1CCC(C)=C[C@H]1c1c(O)cc(CCCCC)cc1O` [CBD, 2-[(6R)-3-Methyl-6-prop-1-en-2-yl-1cyclohex-2-envyl]-5pentylbenzene-1,3-diol, reference compound], the “IL8 secretion from TNFα induced Caco2 cells (result in words)” value (from here on “IL8 secretion”) was “didn't exhibit any significant effect”.
For `CCCC(=O)[O-].[Na+]` [NaB, sodium butyrate], the “IL8 secretion” value was “didn't exhibit any significant effect”.
With `CCC(=O)[O-].[Na+]` [NaP, sodium propionate] the “IL8 secretion” value was “mild reduction of IL8 secretion”.
